For experiment [1], the system named is Candida albicans BWP17 wt. The experiment is described as follows: Filipin and calcofluor white staining microscopy with or without heparin. In kind it is cell-based. The conditions noted are these: 100 units/ml heparin, heparin-treated vs untreated organisms. The method, then:
Heparin effect on Candida albicans growth and morphology was determined. A single colony of BWP17 wt was inoculated into 3 ml YPD medium and incubated overnight at 30° C. with shaking at 225 rpm. Overnight cultures were diluted to an OD600 of 0.1 in 5 ml of YPD (yeast) or RPMI-HEPES (hyphae) in a 50 ml conical polypropylene tube and incubated in the presence or absence of 100 units/ml preservative-free pharmaceutical heparin at 30° C. for six hours. Cells (1 ml) were fixed with an equal volume of 4% formaldehyde in FACS buffer at 4° C. for one hour, then pelleted (7,000 rpm for 3 minutes) and washed with PBS. After reconstitution in 0.5 ml PBS, filipin (50 mg/ml stock solution in DMSO) was added to a final concentration of 100 μg/ml and incubated with cells at room temperature for five minutes. Cells were pelleted, washed with PBS and mounted on a slide using Fluoromount G. For calcofluor white staining, after six hours incubation, 1 μl of 1 mg/ml stock solution of calcofluor white in 0.1 N NaOH was added to 100 μl cells to a final calcofluor white concentration of 10 μg/ml.
Microscopy was performed by imaging filipin, PKH26, DAPI, and heparin-Alexa Fluor 488 on a Nikon Ti-E inverted microscope with a 100×CFI APO oil NA 1.49 objective. Filipin was excited with a Prior Lumen 200 metal halide light source set at 10% light output. […]

Experiment [2] has as its system C. albicans binding to heparin. Put plainly: Inhibition of binding of CFSE-labeled C. albicans to plate-bound heparin (antibody and heparin inhibition studies). In kind it is cell-based, Candida albicans. The method, then:
A single colony of C. albicans was suspended in CSM to an OD600 of 0.1, diluted 1:200 into 25 ml CSM and grown at 30° C. overnight to mid-log phase (OD600 0.6-0.7). Cells were washed twice in sterile PBS and suspended in PBS at 2×10^7 CFU/ml. Carboxyfluorescein succinimidyl ester (Life Technologies) was dissolved in DMSO, diluted in PBS to 50 μM, and 0.5 ml CFSE mixed with 0.5 ml C. albicans suspension. The mixture was incubated for 20 min at room temperature on a rotator, washed once with FACS buffer, once with PBS, then suspended in 1 ml FACS buffer. Intensity of labeling was determined as the mean fluorescence intensity using a BD Accuri C6 cytometer (San Jose, Calif.) with excitation at 488 nm and a 533/30 emission filter. […] The following afternoon, C. albicans wild type strain and mutants were labeled with CFSE as follows: after growth of C. albicans to mid-log phase in CSM medium, organisms were washed two times in PBS and suspended in PBS at a concentration of 2×10^7/ml. 0.5 ml cells was mixed with 0.5 ml CFSE, covered in foil, and rotated on a mixer for 20 minutes at room temperature. […] At the end of the incubation period, wells were washed three times with PBS, and fluorescence in each well was measured (Beckman Coulter Multimode detector DTX880). […]

heparin: the “integrity of membrane sterols (filipin) and location of septin rings (calcofluor white)” value in experiment [1] is “identical”. In addition, the “binding of C. albicans to solid-phase heparin after preincubation with heparin, in words” value in experiment [2] (2.5 units (12.5 μg) solid-phase heparin) is listed as “significantly decreased”. Also, the “decrease in binding of C. albicans to heparin after pre-incubation with soluble heparin” value in experiment [2] (CFSE-labeled C. albicans pre-incubated with 100 units/ml heparin, p=0.022, data not shown) came to 27%.

Values taken from patent US9409975B2, “Antibody binding microbial heparin binding motif to retard or prevent microbial biofilm formation on implanted medical devices” (priority 2012, dated 2016).
